Assay results: patent US20100086519A1, “Treatment of Hepatitis C Infection With Metalloporphyrins” (The Charlotte-Mecklenburg Hospital Authority d/b/a …, priority 2008, published 2010)
Where two headings read alike, the source gives them in different places.

What was measured:
HCV core protein [1] = details: CNS3 cells, 0, 1, 5, 10 μM, 4 hours, FIG. 1C
Description: 9-13 cells, containing a replicating HCV nonstructural region, stably express HCV NS3 to NS5B. CNS3 cells stably express HCV core to NS3 (amino acid residues 1 through 1233 of the Con1 isolate; Gene Bank accession number AJ238799). Huh-7/T7 cells constitutively express the bacteriophage T7 RNA polymerase. The cells were maintained in DMEM supplemented with 10% (v/v) FBS and 500 μg/mL G418 for 9-13 cells, 10 μg/mL zeocin for CNS3 cells or 5 μg/mL zeocin for Huh-7/T7 cells. […] The Con1 cell line is a Huh-7.5 cell population containing the full-length HCV genotype 1b replicon with the highly adaptive serine to isoleucine substitution at amino acid 2204 of the polypeptide. […]
In brief, total proteins (30-50 μg) were separated on 4-15% gradient SDS-PAGE gels. […] Data are expressed as percentages of the controls (corresponding to the value obtained with the vehicle-treated cells), which were assigned values of one.
(§4) NS5A protein levels in 9-13 and Con1 cells, core protein levels in CNS3 cells, and NS5A and core protein levels in Huh-7/T7 cells transfected with pFK-Con1/GND (a plasmid encoding a replication deficient variant of Con1) exposed to different concentrations of ZnMP (0, 1, 5, 10 μM) for 4 hours were evaluated. […]

HCV NS5A protein [2] = biological target: T1, HCV NS5A protein (Hepatitis C virus genotype 1b, UniProt Q9WMX2); test: NS5A protein half-life determination with cycloheximide in 9-13 cells; format: cell-based; design: processed into structural (C, E1, E2) and nonstructural (NS2, NS3, NS4A, NS4B, NS5A and NS5B) proteins; expressed in transfected cells; host or cells: 9-13 cells (human hepatoma cells with a replicating HCV NS3-NS5B region); details: 100 ug/mL CHX, 10 μM ZnMP, 0-4 h, FIGS. 4A, 4B
Description: 9-13 cells were incubated with 100 ug/mL cycloheximide (CHX) in the presence or absence of 10 uM ZnMP. Western blots were performed using anti-HCV NS5A and anti-GAPDH antibodies. Band intensities of Western blots were measured by densitometric analysis. GAPDH bands were used as internal controls to correct for protein loadings.
9-13 cells were treated with 100 ug/mL cycloheximide (CHX) and with or without 10 μM ZnMP for the indicated periods (0, 0.5, 1, 2, 4 h), and then cells were harvested and total proteins were isolated. Proteins were separated on 4-15% SDS-polyacrylamide gel, transferred to a PVDF membrane, anti-HCV NS5A or GAPDH specific antibodies were used to detect NS5A or GAPDH protein levels by Western blot. […] The band intensity of NS5A from untreated sample (0 h) was set at 1.

HCV = test: anti-viral activity (summary statement); format: cell-based, hepatitis C virus
9-13 cells = test: CellTiter-Glo luminescent cell viability assay; format: cell-based, human
Description: The effect of ZnMP on cytotoxicity of treated cells was measured using CellTiter-Glo® Reagent by determining the number of viable cells based on quantitation of the ATP present, which signaled the presence of metabolically active cells. Cells were plated into a 96-well plate with 2500 to 5000 cells/well 24 hours before treatment. Cells were treated with indicated concentrations of ZnMP for 2, 6 and 24 hours in triplicate, an equal volume of CellTiter-Glo® Reagent was added to each well of cell culture medium. The luminescence was read on a Synergy HT microplate reader from Bio-Tek (Winooski, Vt.) with integration time set for 0.25 to 1 second. Decreases in luminescence were taken as an index of cellular cytotoxicity.
In this Example, the cytotoxicity of metalloporphyrins was evaluated. 9-13 cells were seeded into a 96-well plate 24 hours before treatment. Cells were incubated with the indicated concentrations of ZnMP for 0, 2, 6, 24 hours, and CellTiter-Glo® Reagent was added for CellTiter-Glo luminescent cell viability assay on a Synergy HT microplate reader with integration time set for 0.25 to 1 second. Decreases in luminescence were taken as an index of cellular cytotoxicity. * differs from vehicle, P<0.05, Data represent means±SE of triplicate determinations. […] Therefore, ZnMP concentrations not exceeding 20 μM for up to 6 hours or up to 10 μM for up to 24 hours were used.

HCV core, NS5A = test: HCV protein levels by Western blot in Con1 cells, 24 hours; format: cell-based, hepatitis C virus; details: different concentrations, FIG. 7B
Excerpt: (§1) Bartenschlager (University of Heidelberg, Heidelberg, Germany).
(§2) Biochim Biophys Acta 2008; 1779:195-203.
(§3) Total RNA and proteins were extracted.

HCV core protein [3] = details: J6/JFH1 RNA transfected Huh-7.5 cells
Description: In brief, total proteins (30-50 μg) were separated on 4-15% gradient SDS-PAGE gels. After electrophoretic transfer onto ImmunBlot PVDF membrane, membranes were blocked for 1 hour in PBS containing 5% nonfat dry milk and 0.1% Tween-20, and then incubated overnight with primary antibody at 4° C. The dilutions of the primary antibodies were as follows: 1:2000 for anti-HCV NS5A and anti-GAPDH antibodies, and 1:5000 for anti-HCV core antibody. The membranes were then incubated for 1 hour with horseradish peroxidase-conjugated secondary antibodies (dilution 1:10,000). Finally, the bound antibodies were visualized with the ECL-Plus chemiluminescence system according to the manufacturer's protocol. A Kodak 1DV3.6 computer-based imaging system (Rochester, N.Y.) was used to measure the relative optical density of each specific band obtained after Western blotting. Data are expressed as percentages of the controls (corresponding to the value obtained with the vehicle-treated cells), which were assigned values of one.
For HCV RNA transfection, Huh-7.5 cells were plated in 24-well plates one day prior to transfection and transfected at 70˜80% confluence. […]
Huh-7.5 cells were transfected with 2 μg/well of J6/JFH1 RNA by Lipofectamine 2000. […] HCV RNA was quantified by qRT-PCR, and HCV core, NS5A and GAPDH protein levels were measured by Western blots.

J6/JFH1 HCV RNA = test: HCV RNA by qRT-PCR in Huh-7.5 cells transfected with J6/JFH1 RNA; format: cell-based, hepatitis C virus; details: 10 μM, FIG. 8E
Description: Rice (the Rockefeller University, New York, N.Y.).
Total RNA from treated cells was extracted and cDNA was synthesized as described in Hou et al. Real time quantitative RT-PCR was performed using a MyiQ™ Single Color Real-Time PCR Detection System from Bio-Rad (Hercules, Calif.) and iQ™ SYBR Green Supermix Real-Time PCR kit (Bio-Rad). Samples without template and without reverse transcriptase were included as negative controls, which, as expected, produced negligible signals (Ct values>35). Fold-change values were calculated by comparative Ct analysis after normalizing for the quantity of GAPDH in the same samples.

HCV NS5A protein [4] = biological target: T1, HCV NS5A protein; test: NS5A protein levels in Huh-7/T7 cells transfected with pFK-Con1/GND; format: cell-based; design: processed into structural (C, E1, E2) and nonstructural (NS2, NS3, NS4A, NS4B, NS5A and NS5B) proteins; expressed in transfected cells; host or cells: Huh-7/T7 cells transiently transfected with pFK-Con1/GND; details: 24 h, FIG. 7C
Excerpt: as §2, §3

HCV NS5A protein [5] = biological target: T1, HCV NS5A protein; test: NS5A protein levels by Western blot in 9-13 cells; format: cell-based; design: processed into structural (C, E1, E2) and nonstructural (NS2, NS3, NS4A, NS4B, NS5A and NS5B) proteins; expressed in transfected cells; host or cells: 9-13 cells (human hepatoma cells with a replicating HCV NS3-NS5B region)
Excerpt: as §1, §2

HCV NS5A protein [6] = biological target: T2, HCV NS5A protein (Hepatitis C virus genotype 1b, UniProt Q9WMX2, S2204I); test: NS5A protein levels by Western blot in Con1 cells; format: cell-based; details: ZnMP 0, 1, 5, 10 μM, 4 hours, FIG. 1B
T2 construct: processed into structural (C, E1, E2) and nonstructural (NS2, NS3, NS4A, NS4B, NS5A and NS5B) proteins; expressed in transfected cells; host or cells: Con1 cells (Huh-7.5 with the full-length genotype 1b replicon)
Excerpt: as §1, §2

HCV core protein [7] = system: HCV core protein
Description: In brief, total proteins (30-50 μg) were separated on 4-15% gradient SDS-PAGE gels. After electrophoretic transfer onto ImmunBlot PVDF membrane, membranes were blocked for 1 hour in PBS containing 5% nonfat dry milk and 0.1% Tween-20, and then incubated overnight with primary antibody at 4° C. The dilutions of the primary antibodies were as follows: 1:2000 for anti-HCV NS5A and anti-GAPDH antibodies, and 1:5000 for anti-HCV core antibody. The membranes were then incubated for 1 hour with horseradish peroxidase-conjugated secondary antibodies (dilution 1:10,000). Finally, the bound antibodies were visualized with the ECL-Plus chemiluminescence system according to the manufacturer's protocol. A Kodak 1DV3.6 computer-based imaging system (Rochester, N.Y.) was used to measure the relative optical density of each specific band obtained after Western blotting. Data are expressed as percentages of the controls (corresponding to the value obtained with the vehicle-treated cells), which were assigned values of one. […]
as §4

T1 sequence (Q9WMX2 1973-2419): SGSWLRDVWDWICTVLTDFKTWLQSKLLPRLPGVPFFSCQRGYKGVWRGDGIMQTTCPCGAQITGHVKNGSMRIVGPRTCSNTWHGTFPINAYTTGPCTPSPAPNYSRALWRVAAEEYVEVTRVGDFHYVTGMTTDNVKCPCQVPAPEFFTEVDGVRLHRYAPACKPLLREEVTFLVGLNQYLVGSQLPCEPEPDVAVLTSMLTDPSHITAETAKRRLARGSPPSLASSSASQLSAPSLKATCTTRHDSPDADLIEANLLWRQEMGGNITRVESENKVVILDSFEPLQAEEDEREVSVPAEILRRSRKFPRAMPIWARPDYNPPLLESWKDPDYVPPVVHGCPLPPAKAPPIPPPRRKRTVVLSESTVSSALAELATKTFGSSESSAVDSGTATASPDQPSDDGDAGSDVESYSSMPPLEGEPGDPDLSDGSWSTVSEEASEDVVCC
T2 sequence (Q9WMX2 1973-2419 S2204I): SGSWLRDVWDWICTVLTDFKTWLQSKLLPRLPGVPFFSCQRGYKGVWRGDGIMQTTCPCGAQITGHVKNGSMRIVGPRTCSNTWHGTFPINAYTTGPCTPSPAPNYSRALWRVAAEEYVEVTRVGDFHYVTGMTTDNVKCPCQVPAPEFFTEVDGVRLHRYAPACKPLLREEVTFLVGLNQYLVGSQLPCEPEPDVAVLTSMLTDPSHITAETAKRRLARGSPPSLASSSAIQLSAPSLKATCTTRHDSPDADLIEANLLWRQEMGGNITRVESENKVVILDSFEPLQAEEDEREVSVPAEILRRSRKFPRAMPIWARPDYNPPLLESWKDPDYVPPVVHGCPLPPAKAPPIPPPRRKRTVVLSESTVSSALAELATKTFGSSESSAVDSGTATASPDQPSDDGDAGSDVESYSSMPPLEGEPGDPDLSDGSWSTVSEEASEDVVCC

`CCC1=C(C)c2cc3[nH]c(cc4nc(cc5[n-]c(cc1n2)c(C)c5CCC(=O)[O-])C(CCC(=O)[O-])=C4C)c(C)c3CC.[H+].[Zn+2]` [ZnMP, Zinc mesoporphyrin] was tested, and the “HCV core protein levels” value (HCV core protein [1]) was “no detectable effects”, the “NS5A protein levels in presence of cycloheximide” value (HCV NS5A protein [2]) was “greatly and rapidly reduced” and the “anti-viral activity (summary statement)” value (HCV) was “display anti-viral activity”. The cell viability (9-13 cells; 20 μM, 2-6 hours) was “no significant effect”, the cytotoxicity (9-13 cells; 20 μM, 24 hours, p<0.05) was “significant cytotoxicity” and the cell viability (9-13 cells; 1-10 μM, 2-24 hours) was “no significant effect”. For the same compound, the HCV protein levels (HCV core, NS5A) was “dose-dependent reduction”, the core protein levels (HCV core protein [3]; 4 h) was “not affected” and the core protein levels (HCV core protein [3]; 24 h) was “decrease”. The “decrease of HCV RNA levels” value (J6/JFH1 HCV RNA) was roughly 70%, the NS5A protein levels (HCV NS5A protein [4]) was “markedly decreased” and the NS5A protein levels (HCV NS5A protein [5]; 9-13 cells, 10 μM ZnMP alone, 10 and 24 hours, FIG. 9B) was “slightly increased”. For the same compound, the NS5A protein levels (HCV NS5A protein [5]; 9-13 cells, 10 μM ZnMP alone, as little as 2 hours, FIG. 9B) was “rapid and marked down-regulation”, the “NS5A protein levels, time course” value (HCV NS5A protein [5]; 9-13 cells, 10 μM, 0, 2, 4, 6 h, FIG. 2B) was “markedly and rapidly decreased” and the “NS5A protein levels before immunoprecipitation” value (HCV NS5A protein [5]; 9-13 cells, 10 μM, 4 h, FIG. 6A) was “down-regulation”. The NS5A protein levels (HCV NS5A protein [5]; 9-13 cells, 10 μM, 4 hours, FIG. 2A) was “decreased”, the NS5A protein levels (HCV NS5A protein [5]; 9-13 cells, ZnMP 0, 1, 5, 10 μM, 4 hours, FIG. 1A) was “marked decrease” and the “reduction of NS5A protein levels” value (HCV NS5A protein [5]; about 1 μM, 4 hours, stated for bar graphs of FIGS. 1A/1B (9-13 and Con1 cells)) was “about 60%”. The NS5A protein levels (HCV NS5A protein [6]) was “marked decrease”, the “HCV core protein levels” value (HCV core protein [7]; Huh-7/T7 cells transfected with pFK-Con1/GND, 0, 1, 5, 10 μM, 4 hours, FIG. 1D) was “no detectable effects” and the “HCV core protein levels” value (HCV core protein [7]; Huh-7/T7 cells, pFK-Con1/GND, 24 h, FIG. 7C) was “remained unaffected”.
